Key:
[1] = test system: spontaneous CNV in JR5558 mice; assay: JR5558 spontaneous CNV model, CNV area and number by fluorescein angiography; assay type: in vivo
Protocol: JR5558 mice develop CNV (on an atrophic background) spontaneously with CNV lesions first emerging approximately 12 days after birth. JR5558 mice were intraperitoneally treated with various amounts of a rat anti-mouse VEGF receptor (VEGFR)-2 blocking antibody (MAB4431; R&D systems) or a purified rat non-immune isotype match control IgG2α antibody (R&D systems) starting from P14 for a total of 10 doses in 11 days and CNV development was analyzed by fluorescein angiography (FA) 24 hours after the last dose on P25. For Mice treated with CCR3 inhibitor '994 they were dosed intraperitoneally or by eye drop with various concentrations of the drug starting at P14 for a total of 12 days and CNV development was analyzed by FA 24 hours after the last dose on P26. To study the combination effects of anti-VEGFR2 antibody and CCR3 inhibitor '994, mice were treated intraperitoneally with each material alone or in combination starting from P14 for a total of 10 doses in 11 days and CNV development was analyzed by FA 24 hours after the last dose on P25. Experiments exploring the effects of VEGF-A and CCR3 antagonists on vascular permeability from established CNV lesions, JR5558 mice utilised dosing for only two days after the development of CNV lesions and were treated with various amounts of the VEGFR-2 antibody or CCR3 inhibitor '994, or in combinations on P24 and P25. Fluorescein Angiography (FA) was performed on P26.
The pupils of mice were dilated with 2.5% tropicamide (Bausch & Lomb, Rochester, N.Y.) and 0.2 ml of 2% fluorescein sodium (Bausch & Lomb) diluted in water was administered by intraperitoneal injection. A Kowa Genesis-Df fundus camera (Kowa, Tokyo, Japan) was used to obtain fluorescein angiograms at early (90 seconds after fluorescein injection) and late (7 min) phases of dye transit. At the early phase, the vasculature of CNV tissue is clearly defined by the intravascular fluorescein dye. At the late phase, extravascular fluorescein is evident as patches of hyperfluorescence. To quantify the CNV area, Image J program was used to determine the size of each of the hyperfluorescence CNV in each eye with FA images from the early phase. Permeability of each CNV was determined by subtracting the hyper-fluorescent area of early phase (90 second post fluorescein injection) from late phase (7 minutes post fluorescein injection) FA images by using Image J.
JR5558 mice are a strain of mice with an unidentified genetic defect which causes them to develop spontaneous CNV in both retinae with a predictable time course with the first lesions initiating at about post-natal day 12. As such treatment with CCR3 inhibitor '994 was initiated at day 12 and continued for 12 days at which point animals were examined by retinal fluorescence angiography to quantitate the total CNV lesion load and the total number of CNV lesions present in the retinae. Treatment of animals with CCR3 inhibitor '994 led to suppression of both total lesion area (see, FIG. 3, Table 3) and in the total number of CNV lesions present in the retinae (see, FIG. 3, Table 4) when dosed i.p. at either 8 mg/kg QD or 30 mg/kg QD but not when the dose was 2 mg/kg QD.

[2] = test system: retinal neovascularization in C57BL/6 mice; assay: Oxygen-induced retinopathy, area of retinal neovascularization; assay type: in vivo; details: hyperbaric oxygen
Protocol: C57BL/6 mice placed in 75% O2 at postnatal day (P) 7 and at P12 were returned to room air and treatment initiated with compound or vehicle. At P17, the area of retinal NV on the surface of the retina was measured as described previously (Shen et al., 2007). Briefly, P17 mice were given an intraocular injection of 1 μl of rat anti-mouse platelet endothelial cell adhesion molecule-1 (PECAM-1) antibody (Pharmingen, San Jose, Calif., USA); after 12 h, they were euthanized, and eyes were fixed in PBS-buffered formalin for 5 h at room temperature. Retinas were dissected, washed, and incubated with goat-anti rat polyclonal antibody conjugated with Alexa 488 (Invitrogen, Carlsbad, Calif., USA) at 1:500 dilution at room temperature for 45 min and flat mounted. An observer masked with respect to treatment group measured the area of NV per retina by image analysis.
(see, FIGS. 12 and 13). In systemic experiments both eyes were examined and no significant differences were observed between CCR3 inhibitor '994 and vehicle treated groups. In topical experiments no significant differences were noted between CCR3 inhibitor '994 and vehicle groups nor treated and fellow eye in the CCR3 inhibitor '994 treated group. […] Consequently SU4312 acts similarly on retinal neovascularization to that of an alternative receptor tyrosine kinase inhibitor pazopanib which was effective in limiting choroidal neovascularization.

[3] = 2 mg/kg i.p. QD v Vehicle, 12 days P14-P26, fluorescence angiography
[4] = 8 mg/kg i.p. QD v Vehicle, 12 days P14-P26, fluorescence angiography
[5] = 30 mg/kg i.p. QD v Vehicle, 12 days P14-P26, fluorescence angiography
[6] = eye drop study, 1 mg/ml, 5 ul eye drop to each eye BID v Vehicle, P14-P26
[7] = eye drop study, 8 mg/kg i.p. BID comparator v Vehicle, P14-P26
[8] = eye drop study, 10 mg/ml, 5 ul eye drop to each eye BID v Vehicle, P14-P26

NC(=O)c1ccc(CNC(=O)NC[C@H]2CN(Cc3ccc(Cl)c(Cl)c3)CCO2)cc1 [CCR3 inhibitor '994, 4-[[[[[[(2s)-4-[(3,4-dichlorophenyl)methyl]-2-morpholinyl]methyl]-amino]carbonyl]-amino]methyl]benzamide]
Difference in mean total CNV area per eye [1, 3]: −0.0065 | Difference in mean total number of CNV lesions per eye [1, 3]: −1.65 | Difference in mean total CNV area per eye [1, 4]: −0.0171 | Difference in mean total number of CNV lesions per eye [1, 4]: −5.03 | Difference in mean total CNV area per eye [1, 5]: −0.0264 | Difference in mean total number of CNV lesions per eye [1, 5]: −5.20 | Difference in mean total CNV area per eye ([1]; BID study (Table 5), 8 mg/kg BID v Vehicle, 12 days P14-P26, fluorescence angiography): −0.0214 | Difference in mean number of CNV lesions per eye ([1]; BID study (Table 6), 8 mg/kg BID v Vehicle, 12 days P14-P26, fluorescence angiography): −4.63 | effect on CNV lesion area and total occurring CNV lesions ([1]; combination study, 30 mg/kg QD systemic, compared to vehicle): significant reduction in both CNV lesion area and total occurring CNV lesions | Difference in mean total CNV area per eye [1, 6]: −5442.63 | Difference in mean total number of CNV lesions per eye [1, 6]: −2.25 | Difference in mean total CNV area per eye [1, 7]: −9853.26 | Difference in mean total number of CNV lesions per eye [1, 7]: 4.95 | Difference in mean total CNV area per eye [1, 8]: −8047.55 | Difference in mean total number of CNV lesions per eye [1, 8]: −3.96 | effect on neovascularization of retinal vessels ([2]; systemic 8 mg/kg BID i.p.): did not have an effect | effect on neovascularization of retinal vessels ([2]; topically 5 ul 10 mg/ml BID): did not have an effect

— patent US20140335083A1, “METHODS OF TREATMENT AND PREVENTION OF EYE DISEASES” (GLAXO GROUP LIMITED, priority 2011, published 2014)
